Assays:
Type in all cases: in vivo
[1] = target: NAd (Nor adrénaline) uptake (Rattus norvegicus, UniProt Q63380); test: Uptake "ex vivo" of NAd; conditions: dose not given
From the text: (§1) Activité sur les tests d'inhibition ou de recapture des principaux médiateurs adrénergiques.

5-HT (Sérotonine) uptake = 5-HT (Sérotonine) uptake (Rattus norvegicus, UniProt P31652); test: Uptake "ex vivo" of 5-HT; conditions: dose not given, N.S. = not significant
From the text: as §1
(§2) Les résultats obtenus en comparaison avec ceux des antidépresseurs classiques sont rassemblés dans le tableau II: […]

DA (Dopamine) uptake = DA (Dopamine) uptake (Rattus norvegicus, UniProt P23977); test: Uptake "ex vivo" of DA; conditions: dose not given
From the text: as §1, §2

CN(C)CC(Oc1ccccc1)Oc1ccccc1 [MEDIFOXAMINE]
inactif: UPTAKE "EX VIVO" % d'inhibition NAd [1] | UPTAKE "EX VIVO" % d'inhibition 5-HT (5-HT (Sérotonine) uptake) | UPTAKE "EX VIVO" % d'inhibition DA (DA (Dopamine) uptake)

— EP0226475A1, “Diphenoxyethyl amine derivatives, process for their preparation and pharmaceutical compositions containing them” (Albert ROLLAND S.A. Société dite, priority 1985, dated 1987)
